Results: patent US20230116196A1, “METHOD OF TREATING CNS DISORDERS WITH NEU[…] GABAERGIC COMPOUNDS” (priority 2017, published 2023)

Test system: dentate gyrus granule cells (DGGCs)
Assay: sIPSCs in DGGCs after 15 min NAS exposure and >30 min wash
Assay type: cell-based, mouse
Description: Bar graphs show average sIPSC decay and amplitude.
For tonic current measurements, an all-points histogram was plotted for a 10 s period before and during 100 μM picrotoxin application, once the response reached a plateau level. Recordings with unstable baselines were discarded. Fitting the histogram with a Gaussian distribution gave the mean baseline current amplitude and the difference between the amplitudes before and during picrotoxin was considered to be the tonic current. The negative section of the all-points histogram which corresponds to the inward IPSCs was not fitted with a Gaussian distribution (Kretschmannova et al., 2013; Nusser and Mody, 2002). Series resistance and whole-cell capacitance were continually monitored and compensated throughout the course of the experiment. Recordings were eliminated from data analysis if series resistance increased by >20%. Spontaneous inhibitory post-synaptic currents (sIPSCs) were analyzed using the mini-analysis software (version 5.6.4; Synaptosoft, Decatur, Ga.). […] Only recordings with a minimum of 200 events fitting these criteria were analyzed. sIPSCs amplitude, and frequency from each experimental condition was pooled and expressed as mean±SEM. To measure sIPSC decay, 100 consecutive events were averaged and the decay was fitted to a double exponential and the weighted decay constant (tw) was determined. […]

Q: `C[C@@]1(O)CC[C@@]2(C)[C@H](CC[C@@H]3[C@@H]2CC[C@]2(C)[C@@H](C(=O)Cn4nccn4)CC[C@@H]32)C1` [SGE-516] was tested. Which “SGE-516 enhancement of sIPSC amplitude in presence of GFX” value (100 nM SGE-516 with GFX) did it give?
A: Its value is “significantly reduced”.

Q: What about the “sIPSC amplitude following exposure and wash” value (100 nM, 15 min, >30 min wash) of the same compound?
A: Its value is “significantly enhanced”.
